{"source": "paper PMC13544220", "about": "“Glycemic and bodyweight effects of GIPR coding variation reflect differences in surface expression and intrinsic functional impairment” (Science Advances, 2026)", "key": {"[1]": {"system": "wild-type and variant SNAP-GIPR", "experiment": "cAMP concentration response (HTRF) in AD293 cells, SNAP-GIPR", "type": "cell-based, human", "experimental": "(Imperial College London): 24 hours before the experiment, AD293 cells were reverse transfected with the GIPR variant or wild-type plasmids using Lipofectamine 2000 in 12-well plates. All variants were tested in parallel on each occasion to control for transfection efficiency differences between experiments. […] Data were fit using a three-parameter logistic model using GraphPad Prism 10."}, "[2]": {"system": "wild-type and variant SNAP-GIPR", "experiment": "Mini-Gs recruitment (nanoBiT) in AD293 cells", "type": "cell-based, human", "conditions": "100 nM GIP, mean, n=7", "experimental": "AD293 cells were reverse transfected with the GIPR variant or wild-type plasmids plus mini-Gs-LgBiT in a 1:1 ratio using Lipofectamine 2000 in 96-well white-bottom microplates precoated with 0.01% poly-D-lysine. All variants were tested in parallel on each occasion to control for transfection efficiency differences between experiments. After 24 hours, media were removed, cells washed once, and HBSS (Hanks’ balanced salt solution) containing furimazine (Promega, UK) at a 1:100 dilution was added. […] Responses were quantified by as fractional change from baseline with subtraction of the response to vehicle to account for substrate depletion, from which the AUC (area under the curve) was calculated and scaled to the average response obtained from each experiment."}}, "data": [{"smiles": "CC[C@H](C)[C@H](NC(=O)[C@H](CO)NC(=O)[C@H](Cc1ccc(O)cc1)NC(=O)[C@H](CC(=O)O)NC(=O)[C@H](CO)NC(=O)[C@@H](NC(=O)[C@H](Cc1ccccc1)NC(=O)[C@@H](NC(=O)CNC(=O)[C@H](CCC(=O)O)NC(=O)[C@H](C)NC(=O)[C@@H](N)Cc1ccc(O)cc1)[C@@H](C)O)[C@@H](C)CC)C(=O)N[C@@H](C)C(=O)N[C@@H](CCSC)C(=O)N[C@@H](CC(=O)O)C(=O)N[C@@H](CCCCN)C(=O)N[C@H](C(=O)N[C@@H](Cc1c[nH]cn1)C(=O)N[C@@H](CCC(N)=O)C(=O)N[C@@H](CCC(N)=O)C(=O)N[C@@H](CC(=O)O)C(=O)N[C@@H](Cc1ccccc1)C(=O)N[C@H](C(=O)N[C@@H](CC(N)=O)C(=O)N[C@@H](Cc1c[nH]c2ccccc12)C(=O)N[C@@H](CC(C)C)C(=O)N[C@@H](CC(C)C)C(=O)N[C@@H](C)C(=O)N[C@@H](CCC(N)=O)C(=O)N[C@@H](CCCCN)C(=O)NCC(=O)N[C@@H](CCCCN)C(=O)N[C@@H](CCCCN)C(=O)N[C@@H](CC(N)=O)C(=O)N[C@@H](CC(=O)O)C(=O)N[C@@H](Cc1c[nH]c2ccccc12)C(=O)N[C@@H](CCCCN)C(=O)N[C@@H](Cc1c[nH]cn1)C(=O)N[C@@H](CC(N)=O)C(=O)N[C@H](C(=O)N[C@H](C(=O)N[C@@H](CCC(N)=O)C(=O)O)[C@@H](C)O)[C@@H](C)CC)C(C)C)[C@@H](C)CC", "note": "[GIP, glucose-dependent insulinotropic polypeptide, reference compound]", "values": [{"measurement": "cAMP signaling (∆LogEmax/EC50)", "setting": "[1]; AD293, SNAP-GIPR E288G, R190Q, R101H, 0.1% BSA", "result": "markedly reduced responses"}, {"measurement": "cAMP agonism", "setting": "[1]; AD293, SNAP-GIPR R101H and R190Q", "result": "very weak agonists"}, {"measurement": "cAMP signaling (∆LogEmax/EC50)", "setting": "[1]; AD293, SNAP-GIPR S64A, R136W, R217L, vs wild-type", "result": "moderately reduced"}, {"measurement": "mini-Gs recruitment", "setting": "[2]; A207V", "result": 1.64, "unit": "vs. experimental average"}, {"measurement": "mini-Gs recruitment", "setting": "[2]; A268V", "result": 1.037, "unit": "vs. experimental average"}, {"measurement": "mini-Gs recruitment", "setting": "[2]; D66G", "result": 0.1098, "unit": "vs. experimental average"}, {"measurement": "mini-Gs recruitment", "setting": "[2]; E252D", "result": 1.347, "unit": "vs. experimental average"}, {"measurement": "mini-Gs recruitment", "setting": "[2]; E288G", "result": 0.1501, "unit": "vs. experimental average"}, {"measurement": "mini-Gs recruitment", "setting": "[2]; E354Q", "result": 1.309, "unit": "vs. experimental average"}, {"measurement": "mini-Gs recruitment", "setting": "[2]; E463Q", "result": 1.656, "unit": "vs. experimental average"}, {"measurement": "mini-Gs recruitment", "setting": "[2]; G438S", "result": 1.599, "unit": "vs. experimental average"}, {"measurement": "mini-Gs recruitment", "setting": "[2]; I378M", "result": 1.145, "unit": "vs. experimental average"}, {"measurement": "mini-Gs recruitment", "setting": "[2]; I403V", "result": 1.332, "unit": "vs. experimental average"}, {"measurement": "mini-Gs recruitment", "setting": "[2]; L100F", "result": 1.391, "unit": "vs. experimental average"}, {"measurement": "mini-Gs recruitment", "setting": "[2]; L262H", "result": 1.034, "unit": "vs. experimental average"}, {"measurement": "mini-Gs recruitment", "setting": "[2]; L262V", "result": 1.282, "unit": "vs. experimental average"}, {"measurement": "mini-Gs recruitment", "setting": "[2]; L304R", "result": 0.04884, "unit": "vs. experimental average"}, {"measurement": "mini-Gs recruitment", "setting": "[2]; R101H", "result": 0.1049, "unit": "vs. experimental average"}, {"measurement": "mini-Gs recruitment", "setting": "[2]; R131S", "result": 1.232, "unit": "vs. experimental average"}, {"measurement": "mini-Gs recruitment", "setting": "[2]; R136W", "result": 0.7709, "unit": "vs. experimental average"}, {"measurement": "mini-Gs recruitment", "setting": "[2]; R183Q", "result": 0.3712, "unit": "vs. experimental average"}, {"measurement": "mini-Gs recruitment", "setting": "[2]; R190Q", "result": -0.001793, "unit": "vs. experimental average"}, {"measurement": "mini-Gs recruitment", "setting": "[2]; R196G", "result": 1.201, "unit": "vs. experimental average"}, {"measurement": "mini-Gs recruitment", "setting": "[2]; R217L", "result": 1.091, "unit": "vs. experimental average"}, {"measurement": "mini-Gs recruitment", "setting": "[2]; R300W", "result": 1.262, "unit": "vs. experimental average"}, {"measurement": "mini-Gs recruitment", "setting": "[2]; R336P", "result": 1.585, "unit": "vs. experimental average"}, {"measurement": "mini-Gs recruitment", "setting": "[2]; R341P", "result": 0.3717, "unit": "vs. experimental average"}, {"measurement": "mini-Gs recruitment", "setting": "[2]; R404H", "result": 1.074, "unit": "vs. experimental average"}, {"measurement": "mini-Gs recruitment", "setting": "[2]; S64A", "result": 0.6095, "unit": "vs. experimental average"}, {"measurement": "mini-Gs recruitment", "setting": "[2]; S415G", "result": 1.199, "unit": "vs. experimental average"}, {"measurement": "mini-Gs recruitment", "setting": "[2]; S415I", "result": 1.365, "unit": "vs. experimental average"}, {"measurement": "mini-Gs recruitment", "setting": "[2]; S447T", "result": 1.5239, "unit": "vs. experimental average"}, {"measurement": "mini-Gs recruitment", "setting": "[2]; T116R", "result": 0.9756, "unit": "vs. experimental average"}, {"measurement": "mini-Gs recruitment", "setting": "[2]; WT", "result": 1.184, "unit": "vs. experimental average"}]}]}
